Test results: PubChem BioAssay (NCI)
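48-hour exposure; five concentrations; linearly interpolated endpoints. TGI marks complete inhibition of growth.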

Assays:
Experiment in all cases: NCI anticancer screen, dose series, 48 h
BT-549 breast = system: BT-549 breast
CCRF-CEM leukemia = system: CCRF-CEM leukemia
DU-145 prostate = system: DU-145 prostate
HCC-2998 colon = system: HCC-2998 colon
HL-60(TB) leukemia = system: HL-60(TB) leukemia
LOX IMVI melanoma = system: LOX IMVI melanoma
M14 melanoma = system: M14 melanoma
MALME-3M melanoma = system: MALME-3M melanoma
MCF7 breast = system: MCF7 breast
NCI-H226 lung = system: NCI-H226 lung
NCI-H23 lung = system: NCI-H23 lung
NCI-H522 lung = system: NCI-H522 lung
OVCAR-4 ovarian = system: OVCAR-4 ovarian
OVCAR-8 ovarian = system: OVCAR-8 ovarian
SF-295 CNS = system: SF-295 CNS
SNB-75 CNS = system: SNB-75 CNS
SR leukemia = system: SR leukemia
UACC-257 melanoma = system: UACC-257 melanoma
UO-31 renal = system: UO-31 renal

Structure (SMILES)	TGI (BT-549 breast)	TGI (CCRF-CEM leukemia)	TGI (DU-145 prostate)	TGI (HCC-2998 colon)	TGI (HL-60(TB) leukemia)	TGI (LOX IMVI melanoma)	TGI (M14 melanoma)	TGI (MALME-3M melanoma)	TGI (MCF7 breast)	TGI (NCI-H226 lung)	TGI (NCI-H23 lung)	TGI (NCI-H522 lung)	TGI (OVCAR-4 ovarian)	TGI (OVCAR-8 ovarian)	TGI (SF-295 CNS)	TGI (SNB-75 CNS)	TGI (SR leukemia)	TGI (UACC-257 melanoma)	TGI (UO-31 renal)
CN(CCNC(=O)c1cc(-c2ccccc2)nc2ccccc12)CCNC(=O)c1cc(-c2ccccc2)nc2ccccc12	> 100 µM	> 100 µM	> 95.5 µM	5.54 µM	24.9 µM	16 µM	4.66 µM	4.09 µM	42 µM	55.5 µM	> 100 µM	> 47.5 µM	> 100 µM	> 100 µM	90.5 µM	39.9 µM	7.63 µM	10.2 µM	> 100 µM
N#C/C(N)=C(\C#N)N=CNc1ccccc1N	> 100 µM	> 100 µM	> 100 µM	> 100 µM	> 100 µM	> 100 µM	> 100 µM	> 100 µM	> 100 µM	> 100 µM	> 100 µM	> 100 µM	> 100 µM	> 100 µM	> 100 µM	> 100 µM	> 100 µM	> 100 µM	> 100 µM
CC(C)(Cc1ccccc1)Cc1cc(O)ccc1O	74.1 µM	36.7 µM	> 100 µM	39.1 µM	4.8 µM	26.8 µM	37.4 µM	33.2 µM	86.5 µM	97.8 µM	38.7 µM	17.1 µM	91.9 µM	40.7 µM	73.5 µM	68.1 µM	27.7 µM	29.5 µM	26.3 µM
O=C1/C(=C/c2ccc(O)cc2)CCc2ccccc21	41.4 µM	10.9 µM	64.9 µM	43.6 µM	36.7 µM	49.2 µM	36.6 µM	42.9 µM	82.4 µM	57.8 µM	55.2 µM	5.61 µM	> 74.5 µM	73.5 µM	> 63.7 µM	> 70.7 µM	16 µM	35.8 µM	47.9 µM
Nc1nc(Cl)cc(NCC2(CO)CC(Cc3ccccc3)C2)n1 (stereo not given)	> 80.5 µM	> 100 µM	> 100 µM	> 88.6 µM	> 46.4 µM	> 100 µM	37.1 µM	> 100 µM	> 77.7 µM	> 91.1 µM	> 100 µM	> 100 µM	> 100 µM	> 100 µM	> 100 µM	> 100 µM	> 56.1 µM	> 82.3 µM	> 100 µM
